Paper PMC7481839, “Switchable foldamer ion channels with antibacterial activity” (Chemical Science, 2020)
Where a SMILES comes first, the peptide text is derived from it.

Test: Planar bilayer conductance (PBC) studies
Assay type: biochemical
Conditions: +100 or –100 mV, 50 s sweeps, up to 2 h, final concentration 8.3 µM, 20 mM MOPS, 100 mM NaCl or KCl, pH 7.4
Protocol: The observation of discrete conductance events can indicate channel formation and provide information on the nature of these channels.
PBC experiments were performed in a custom-built cell, with either 2 or Cu(II)[2]Cl2 (5–10 μL of a 1 mM solution in MeOH) added to the ground well. Characterisation sweeps were continued for 2 h, or until substantial channel-forming activity was observed. Single channel experiments were conducted under an applied potential of +100 or –100 mV in 50 s sweeps. […] Large current levels and reproducible well-defined quantized steps from 0.5 to 5 ms in duration (similar to the “flicker” behaviour described by Chui and Fyles[42]) were measured (Fig. 6). […] This could imply [Cu(II)[2]Cl]^+ cations[44] are involved in the channel-forming species. Channel events have multilevel conductances, both at +100 mV (∼0.08 nS, ∼0.14 nS) and at –100 mV potentials (∼0.08 nS, ∼0.15 nS).
The blue product from the addition of CuCl to 2 was also assessed using PBC experiments. […] In addition, much longer lived “square topped” openings could also be observed (Fig. 6b). These very regular well-defined quantized current steps were open for up to 20 ms at +100 mV, with multiple stepwise increases in conductance with ∼0.18 nS increments.[46] […]

**Q.** For `CC(C)(NC(=O)C(C)(C)NC(=O)C(C)(C)NC(=O)C(C)(C)NC(=O)C(C)(C)n1cc(CN(Cc2ccccn2)Cc2ccccn2)nn1)C(=O)NC(C)(C)C(=O)NC(C)(C)C(=O)NC(C)(C)C(=O)OCC[Si](C)(C)C` [foldamer 2] (HELM PEPTIDE1{[CC(C)(C(=O)[*:2])n1cc(CN(Cc2ccccn2)Cc2ccccn2)nn1].[Aib].[Aib].[Aib].[Aib].[Aib].[Aib].[Aib].[C[Si](C)(C)CCO[*:1]]}$$$$V2.0), which “ion channel behaviour in PBC” value is on record?
**A.** did not display any ion channel behaviour
